Measurements reported in patent publication EP4722212A1, “NOVEL COMPOUND FOR INHIBITING PROTEIN KINASES AND PHARMACEUTICAL COMPOSITION COMPRISING SAME” (Magicbullettherapeutics Co., Ltd., priority 2023, dated 2024).
Where two headings read alike, the source gives them in different places.

Tests used:
Assay in all cases: Kinase panel
Format in all cases: biochemical
[1] = target: AKT2 (Homo sapiens, UniProt P31751); settings: AKT2, 1 µM; read-out: residual enzyme activity
In short: (§1)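 Values report residual kinase activity remaining after treatment with 1 µM compound in a biochemical panel assay. Enzymes retaining 40% or less of their activity, equivalent to at least 60% inhibition, were listed.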

[2] = target: ALK6/BMPR1B (Homo sapiens, UniProt O00238); settings: read-out: residual enzyme activity
In short: as §1

[3] = target: ARK5/NUAK1 (Homo sapiens, UniProt O60285); settings: read-out: residual enzyme activity
In short: as §1

[4] = target: CAMKK1 (Homo sapiens, UniProt Q8N5S9); settings: CAMKK1, 1 µM; read-out: residual enzyme activity
In short: as §1

[5] = target: CDK14/CYCLIN Y (PFTK1) (Homo sapiens, UniProt O94921); settings: read-out: residual enzyme activity
In short: as §1

[6] = target: CDK2/CYCLIN A (Homo sapiens, UniProt P24941); settings: read-out: residual enzyme activity
In short: as §1

[7] = target: CDK2/CYCLIN E (Homo sapiens, UniProt P24941); settings: read-out: residual enzyme activity
In short: as §1

[8] = target: CDK2/CYCLIN O (Homo sapiens, UniProt P24941); settings: read-out: residual enzyme activity
In short: as §1

[9] = target: DMPK (Homo sapiens, UniProt Q09013); settings: read-out: residual enzyme activity
In short: as §1

[10] = target: EPHA4 (Homo sapiens, UniProt P54764); settings: EPHA4, 1 µM; read-out: residual enzyme activity
In short: as §1

[11] = target: FLT4/VEGFR3 (Homo sapiens, UniProt P35916); settings: FLT4/VEGFR3, 1 µM; read-out: residual enzyme activity
Sequence of FLT4/VEGFR3 (P35916 25-1363): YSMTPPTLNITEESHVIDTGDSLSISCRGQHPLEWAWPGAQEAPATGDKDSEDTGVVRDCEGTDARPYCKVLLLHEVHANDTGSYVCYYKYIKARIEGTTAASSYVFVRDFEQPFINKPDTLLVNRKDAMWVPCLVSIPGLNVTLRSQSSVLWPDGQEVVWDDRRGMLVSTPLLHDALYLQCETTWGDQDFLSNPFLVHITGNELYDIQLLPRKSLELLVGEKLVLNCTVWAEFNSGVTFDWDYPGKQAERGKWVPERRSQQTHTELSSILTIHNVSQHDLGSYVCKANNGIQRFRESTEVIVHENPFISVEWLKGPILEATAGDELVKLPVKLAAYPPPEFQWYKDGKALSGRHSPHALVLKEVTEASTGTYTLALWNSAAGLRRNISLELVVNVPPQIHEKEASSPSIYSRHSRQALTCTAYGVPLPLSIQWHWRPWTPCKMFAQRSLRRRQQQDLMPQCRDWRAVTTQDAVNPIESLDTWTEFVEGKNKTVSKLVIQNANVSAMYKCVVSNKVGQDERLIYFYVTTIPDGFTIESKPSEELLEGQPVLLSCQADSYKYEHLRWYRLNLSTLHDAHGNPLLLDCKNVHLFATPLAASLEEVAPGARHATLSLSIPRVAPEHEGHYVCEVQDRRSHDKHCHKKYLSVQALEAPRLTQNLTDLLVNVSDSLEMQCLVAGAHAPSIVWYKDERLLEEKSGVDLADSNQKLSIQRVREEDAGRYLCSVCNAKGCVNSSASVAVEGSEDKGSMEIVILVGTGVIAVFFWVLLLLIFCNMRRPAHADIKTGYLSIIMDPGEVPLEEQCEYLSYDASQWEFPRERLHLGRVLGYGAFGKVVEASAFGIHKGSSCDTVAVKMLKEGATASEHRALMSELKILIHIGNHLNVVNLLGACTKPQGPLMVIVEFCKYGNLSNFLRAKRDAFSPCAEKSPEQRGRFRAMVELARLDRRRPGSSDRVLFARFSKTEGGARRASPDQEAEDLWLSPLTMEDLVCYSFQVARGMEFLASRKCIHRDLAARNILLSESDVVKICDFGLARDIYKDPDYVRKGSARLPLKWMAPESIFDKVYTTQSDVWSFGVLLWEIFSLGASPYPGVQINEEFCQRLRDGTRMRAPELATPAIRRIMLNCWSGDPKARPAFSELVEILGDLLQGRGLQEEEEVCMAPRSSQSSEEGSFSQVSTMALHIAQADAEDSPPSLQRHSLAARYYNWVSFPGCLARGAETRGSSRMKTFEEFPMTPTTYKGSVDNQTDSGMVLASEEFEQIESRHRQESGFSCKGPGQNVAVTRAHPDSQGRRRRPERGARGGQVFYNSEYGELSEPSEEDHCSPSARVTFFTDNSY
In short: as §1

[12] = target: IRAK4 (Homo sapiens, UniProt Q9NWZ3); settings: IRAK4, 1 µM; read-out: residual enzyme activity
In short: as §1

[13] = target: KSR2 (Homo sapiens, UniProt Q6VAB6); settings: KSR2, 1 µM; read-out: residual enzyme activity
In short: as §1

[14] = target: LCK2/ICK (Homo sapiens, UniProt Q9UPZ9); settings: read-out: residual enzyme activity
Sequence of LCK2/ICK (Q9UPZ9 whole entry): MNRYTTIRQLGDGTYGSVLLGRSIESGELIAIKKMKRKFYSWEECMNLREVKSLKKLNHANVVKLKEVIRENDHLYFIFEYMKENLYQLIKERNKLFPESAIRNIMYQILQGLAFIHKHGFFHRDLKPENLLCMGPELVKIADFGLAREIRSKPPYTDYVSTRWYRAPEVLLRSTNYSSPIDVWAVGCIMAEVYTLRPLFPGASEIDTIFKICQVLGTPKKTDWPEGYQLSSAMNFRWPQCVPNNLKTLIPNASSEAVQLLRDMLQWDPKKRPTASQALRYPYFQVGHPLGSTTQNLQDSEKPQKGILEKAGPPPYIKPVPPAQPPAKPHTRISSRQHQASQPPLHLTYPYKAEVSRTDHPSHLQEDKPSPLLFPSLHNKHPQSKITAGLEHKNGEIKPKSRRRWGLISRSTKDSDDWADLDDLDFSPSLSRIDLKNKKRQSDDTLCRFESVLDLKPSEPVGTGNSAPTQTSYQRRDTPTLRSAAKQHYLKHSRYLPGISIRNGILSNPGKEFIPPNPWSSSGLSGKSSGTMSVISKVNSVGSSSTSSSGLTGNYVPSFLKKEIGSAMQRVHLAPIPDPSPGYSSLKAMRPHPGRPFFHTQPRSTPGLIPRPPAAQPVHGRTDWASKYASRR
In short: as §1

[15] = target: LIMK1 (Homo sapiens, UniProt P53667); settings: LIMK1, 1 µM; read-out: residual enzyme activity
In short: as §1

[16] = target: MARK2/PAR-IBA (Homo sapiens, UniProt Q7KZI7); settings: read-out: residual enzyme activity
In short: as §1

[17] = target: MEK5 (Homo sapiens, UniProt Q13163); settings: MEK5, 1 µM; read-out: residual enzyme activity
In short: as §1

[18] = target: MEKK3 (Homo sapiens, UniProt Q99759); settings: MEKK3, 1 µM; read-out: residual enzyme activity
Sequence of MEKK3 (Q99759 whole entry, species assumed): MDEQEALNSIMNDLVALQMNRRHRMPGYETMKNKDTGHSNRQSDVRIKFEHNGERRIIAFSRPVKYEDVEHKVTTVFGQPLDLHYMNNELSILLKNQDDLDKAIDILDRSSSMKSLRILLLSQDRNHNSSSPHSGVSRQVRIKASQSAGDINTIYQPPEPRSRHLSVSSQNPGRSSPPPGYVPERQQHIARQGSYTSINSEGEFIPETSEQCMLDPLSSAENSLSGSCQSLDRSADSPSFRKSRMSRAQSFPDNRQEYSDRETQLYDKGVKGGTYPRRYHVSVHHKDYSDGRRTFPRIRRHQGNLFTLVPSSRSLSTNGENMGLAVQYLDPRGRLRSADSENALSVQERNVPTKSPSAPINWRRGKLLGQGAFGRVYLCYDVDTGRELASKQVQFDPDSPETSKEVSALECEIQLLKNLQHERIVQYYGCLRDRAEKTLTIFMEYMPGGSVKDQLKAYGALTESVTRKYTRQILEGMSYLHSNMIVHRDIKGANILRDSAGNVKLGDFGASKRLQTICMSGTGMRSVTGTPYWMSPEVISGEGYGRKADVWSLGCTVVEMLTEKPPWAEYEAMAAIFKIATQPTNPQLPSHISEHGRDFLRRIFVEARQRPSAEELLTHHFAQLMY
In short: as §1

[19] = target: MELK (Homo sapiens, UniProt Q14680); settings: read-out: residual enzyme activity
In short: as §1

[20] = target: MST4 (Homo sapiens, UniProt Q9P289); settings: MST4, 1 µM; read-out: residual enzyme activity
Sequence of MST4 (Q9P289 whole entry, species assumed): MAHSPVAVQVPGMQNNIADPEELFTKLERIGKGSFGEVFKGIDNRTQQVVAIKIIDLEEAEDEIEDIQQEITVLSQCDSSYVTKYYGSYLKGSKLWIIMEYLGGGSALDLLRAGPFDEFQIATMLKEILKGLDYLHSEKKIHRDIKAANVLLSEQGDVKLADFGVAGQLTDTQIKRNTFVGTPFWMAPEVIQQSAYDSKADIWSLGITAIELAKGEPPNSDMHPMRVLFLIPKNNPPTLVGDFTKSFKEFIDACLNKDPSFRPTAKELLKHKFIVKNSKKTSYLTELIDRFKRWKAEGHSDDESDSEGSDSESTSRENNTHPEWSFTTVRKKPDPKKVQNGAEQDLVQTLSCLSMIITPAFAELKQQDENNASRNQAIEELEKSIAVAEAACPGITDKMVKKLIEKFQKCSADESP
In short: as §1

[21] = target: PDK1/PDPK1 (Homo sapiens, UniProt O15530); settings: PDK1/PDPK1, 1 µM; read-out: residual enzyme activity
Sequence of PDK1/PDPK1 (O15530 whole entry): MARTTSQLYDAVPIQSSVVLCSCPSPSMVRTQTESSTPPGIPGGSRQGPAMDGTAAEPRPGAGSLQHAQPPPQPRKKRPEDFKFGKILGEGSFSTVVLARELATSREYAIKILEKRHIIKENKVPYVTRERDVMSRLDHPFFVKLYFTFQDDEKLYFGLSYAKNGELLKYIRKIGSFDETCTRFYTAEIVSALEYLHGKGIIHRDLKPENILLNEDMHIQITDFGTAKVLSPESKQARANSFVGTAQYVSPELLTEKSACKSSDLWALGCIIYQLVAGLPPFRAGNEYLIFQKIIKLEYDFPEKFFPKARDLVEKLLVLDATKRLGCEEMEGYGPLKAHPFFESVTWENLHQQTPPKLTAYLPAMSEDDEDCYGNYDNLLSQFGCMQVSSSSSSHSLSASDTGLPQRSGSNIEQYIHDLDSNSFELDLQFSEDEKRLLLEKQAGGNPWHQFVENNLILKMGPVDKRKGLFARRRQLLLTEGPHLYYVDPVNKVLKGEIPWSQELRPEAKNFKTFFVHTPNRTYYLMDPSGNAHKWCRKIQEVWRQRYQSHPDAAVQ
In short: as §1

[22] = target: PKCB1 (Homo sapiens, UniProt P05771); settings: read-out: residual enzyme activity
Sequence of PKCB1 (P05771 whole entry): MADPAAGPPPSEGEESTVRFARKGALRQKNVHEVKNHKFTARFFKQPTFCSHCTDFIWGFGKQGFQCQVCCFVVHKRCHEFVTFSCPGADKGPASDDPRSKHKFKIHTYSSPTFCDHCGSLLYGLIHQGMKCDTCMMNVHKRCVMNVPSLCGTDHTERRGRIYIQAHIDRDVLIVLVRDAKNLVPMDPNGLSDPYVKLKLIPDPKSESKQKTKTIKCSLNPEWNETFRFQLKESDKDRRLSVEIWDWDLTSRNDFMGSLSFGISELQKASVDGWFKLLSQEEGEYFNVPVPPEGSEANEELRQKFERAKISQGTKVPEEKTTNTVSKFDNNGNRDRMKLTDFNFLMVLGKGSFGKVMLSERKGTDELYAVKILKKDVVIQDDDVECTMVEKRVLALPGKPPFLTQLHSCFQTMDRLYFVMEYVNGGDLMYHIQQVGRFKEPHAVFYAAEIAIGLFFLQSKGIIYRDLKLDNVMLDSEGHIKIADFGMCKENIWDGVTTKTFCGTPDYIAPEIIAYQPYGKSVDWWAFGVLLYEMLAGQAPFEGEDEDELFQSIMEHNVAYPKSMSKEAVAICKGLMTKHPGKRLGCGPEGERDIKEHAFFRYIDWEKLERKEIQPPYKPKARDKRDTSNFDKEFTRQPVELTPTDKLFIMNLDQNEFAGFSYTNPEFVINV
In short: as §1

[23] = target: PKCB2 (Homo sapiens, UniProt P05771); settings: PKCb2, 1 µM; read-out: residual enzyme activity
In short: as §1

[24] = target: PKCEPSILON (Homo sapiens, UniProt Q02156); settings: read-out: residual enzyme activity
In short: as §1

[25] = target: PKCZETA (Homo sapiens, UniProt Q05513); settings: read-out: residual enzyme activity
In short: as §1

[26] = target: PKN2/PRK2 (Homo sapiens, UniProt Q16513); settings: PKN2/PRK2, 1 µM; read-out: residual enzyme activity
In short: as §1

[27] = target: ROCK2 (Homo sapiens, UniProt O75116); settings: ROCK2, 1 µM; read-out: residual enzyme activity
In short: as §1

[28] = target: RSK4 (Homo sapiens, UniProt Q9UK32); settings: RSK4, 1 µM; read-out: residual enzyme activity
In short: as §1

[29] = target: SGK2 (Homo sapiens, UniProt Q9HBY8); settings: SGK2, 1 µM; read-out: residual enzyme activity
In short: as §1

[30] = target: SIK3 (Homo sapiens, UniProt Q9Y2K2); settings: SIK3, 1 µM; read-out: residual enzyme activity
In short: as §1

[31] = target: STK25/YSK1 (Homo sapiens, UniProt O00506); settings: STK25/YSK1, 1 µM; read-out: residual enzyme activity
In short: as §1

[32] = target: TRKB (Homo sapiens, UniProt Q16620); settings: read-out: residual enzyme activity
Sequence of TRKB (Q16620 32-822, species assumed): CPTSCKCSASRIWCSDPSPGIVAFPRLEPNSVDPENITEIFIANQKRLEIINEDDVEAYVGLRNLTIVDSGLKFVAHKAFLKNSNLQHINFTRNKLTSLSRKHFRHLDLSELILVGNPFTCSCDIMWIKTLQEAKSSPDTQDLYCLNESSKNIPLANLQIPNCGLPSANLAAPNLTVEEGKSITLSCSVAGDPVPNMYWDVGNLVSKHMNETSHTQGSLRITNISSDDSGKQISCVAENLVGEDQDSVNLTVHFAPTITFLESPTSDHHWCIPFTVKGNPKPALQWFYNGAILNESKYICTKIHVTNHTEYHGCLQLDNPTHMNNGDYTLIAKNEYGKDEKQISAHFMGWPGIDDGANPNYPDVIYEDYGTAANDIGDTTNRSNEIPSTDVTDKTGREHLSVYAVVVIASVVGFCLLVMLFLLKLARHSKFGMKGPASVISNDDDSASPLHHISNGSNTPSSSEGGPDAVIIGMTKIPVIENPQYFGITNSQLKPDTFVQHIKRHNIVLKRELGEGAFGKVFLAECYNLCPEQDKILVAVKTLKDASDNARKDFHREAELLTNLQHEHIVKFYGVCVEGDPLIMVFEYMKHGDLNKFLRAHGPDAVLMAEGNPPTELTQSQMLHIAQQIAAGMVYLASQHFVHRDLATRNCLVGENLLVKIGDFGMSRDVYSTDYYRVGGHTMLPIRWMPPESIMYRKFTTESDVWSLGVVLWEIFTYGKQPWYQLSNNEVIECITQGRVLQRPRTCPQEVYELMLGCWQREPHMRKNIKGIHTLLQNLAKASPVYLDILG
In short: as §1

[33] = target: TRKC (Homo sapiens, UniProt Q16288); settings: read-out: residual enzyme activity
In short: as §1

[34] = target: TTBK1 (Homo sapiens, UniProt Q5TCY1); settings: TTBK1, 1 µM; read-out: residual enzyme activity
In short: as §1

Compound | remaining activity at 1 µM [1] [%] | remaining activity at 1 µM [2] [%] | remaining activity at 1 µM [4] [%] | remaining activity at 1 µM [5] [%] | remaining activity at 1 µM [6] [%] | remaining activity at 1 µM [7] [%] | remaining activity at 1 µM [8] [%] | remaining activity at 1 µM [9] [%] | remaining activity at 1 µM [10] [%] | remaining activity at 1 µM [11] [%] | remaining activity at 1 µM [12] [%] | remaining activity at 1 µM [13] [%] | remaining activity at 1 µM [14] [%] | remaining activity at 1 µM [15] [%] | remaining activity at 1 µM [17] [%] | remaining activity at 1 µM [18] [%] | remaining activity at 1 µM [19] [%] | remaining activity at 1 µM [20] [%] | remaining activity at 1 µM [21] [%] | remaining activity at 1 µM [23] [%] | other results
Cc1cn(-c2cc(C(=O)Nc3ccc(C)c(N4Cc5cnc(NC6CC6)nc5C5(CC5)C4=O)c3)cc(C(F)(F)F)c2)cn1 [Compound 8, N-(3-(2'-(cyclopropylamino)-7'-oxo-5'H-spiro[cyclopropane-1,8'-pyrido[4,3-d]pyrimidine]-6'(7'H)-yl)-4-methylphenyl)-3-(4-methyl-1H-imidazol-1-yl)-5-(trifluoromethyl)benzamide] | > 40 | > 40 | > 40 | > 40 | > 40 | > 40 | > 40 | > 40 | ≤ 40 | ≤ 40 | > 40 | > 40 | > 40 | ≤ 40 | ≤ 40 | ≤ 40 | > 40 | > 40 | > 40 | > 40 | remaining activity at 1 µM ([3]; ARK5/NUAK1, 1 µM): > 40%; remaining activity at 1 µM ([16]; MARK2/PAR-IBA): > 40%; remaining activity at 1 µM ([22]; PKCB1, 1 µM): > 40%; remaining activity at 1 µM [24]: > 40%; remaining activity at 1 µM [25]: > 40%; remaining activity at 1 µM [26]: > 40%; remaining activity at 1 µM [27]: > 40%; remaining activity at 1 µM [28]: > 40%; remaining activity at 1 µM [29]: > 40%; remaining activity at 1 µM [30]: ≤ 40%; remaining activity at 1 µM [31]: > 40%; remaining activity at 1 µM [32]: ≤ 40%; remaining activity at 1 µM [33]: ≤ 40%; remaining activity at 1 µM [34]: > 40%
Cc1ccc(Nc2ncc3c(n2)C2(CC2)C(=O)N(c2cc(NC(=O)c4cccc(C(F)(F)F)c4)ccc2C)C3)cn1 [Compound 51, N-(4-methyl-3-(2'-((6-methylpyridin-3-yl)amino)-7'-oxo-5'H-spiro[cyclopropane-1,8'-pyrido[4,3-d]pyrimidine]-6'(7'H)-yl)phenyl)-3-(trifluoromethyl)benzamide] | > 40 | > 40 | > 40 | > 40 | > 40 | > 40 | > 40 | > 40 | ≤ 40 | ≤ 40 | > 40 | > 40 | > 40 | ≤ 40 | ≤ 40 | ≤ 40 | > 40 | > 40 | > 40 | > 40 | remaining activity at 1 µM ([3]; ARKS/NUAKl, 1 µM): > 40%; remaining activity at 1 µM ([16]; MARK2/PAR-IBa): > 40%; remaining activity at 1 µM ([22]; PKCbl, 1 µM): > 40%; remaining activity at 1 µM [24]: > 40%; remaining activity at 1 µM [25]: > 40%; remaining activity at 1 µM [26]: > 40%; remaining activity at 1 µM [27]: > 40%; remaining activity at 1 µM [28]: > 40%; remaining activity at 1 µM [29]: > 40%; remaining activity at 1 µM [30]: ≤ 40%; remaining activity at 1 µM [31]: > 40%; remaining activity at 1 µM [32]: ≤ 40%; remaining activity at 1 µM [33]: ≤ 40%; remaining activity at 1 µM [34]: > 40%
